pIC50: −log10 of the molar value.
Tests used:
PDE5 = target: T1, PDE5 (Canis lupus familiaris, UniProt O77746); assay: PDE assay, PDE5 enzyme solution from canine lung; assay type: biochemical; conditions: substrate about 12 nM [3H]-cGMP and 1 μM cGMP
T1 construct: These were used as a PDE5 enzyme solution for PDE assay; tissue Oriental Yeast (animals); host or cells: canine lung, soluble fraction, DEAE Sepharose fractions
Procedure: In the same manner as in (1-4) above, the supernatant obtained from the homogenate of canine lung tissue was applied to chromatography under FLPC system, to collect eluted fractions of 2 ml each.
Subsequently, the eluted fractions were used as an enzyme solution for PDE assay, and cGMP-hydrolyzing activity was measured for respective fractions, in the presence or absence of E4021, the PDE5 specific inhibitor.
Further, for examining contamination of PDE1, which is adjacently eluted, cGMP-hydrolyzing PDE activity of the respective fractions were measured in the same assay buffer containing EGTA (final concentration of 1 mM) [or calcium chloride (final concentration of 2 mM) and calmodulin (40 units/ml)].
These fractions were collected and glycerol was added thereto to become 50%, and the mixture was stored at −20° C. These were used as a PDE5 enzyme solution for PDE assay.

[1] = system: rat 6-hydroxydopamine model; assay: Rat 6-hydroxydopamine model, L-dopa induced rotational behaviors; assay type: in vivo, SD rat; conditions: 1 mg/kg, i.v.; L-dopa 10 mg/kg i.p. + benserazide 2.5 mg/kg i.p.
Procedure: Preparation of rat 6-hydroxydopamine model According to the method described in the literature (Koga et al., European Journal of Pharmacology, vol. 408, pp. 249-255, 2000), 6-hydroxydopamine (6-OHDA) was administered in the rat's brain, to cause lesion in the substantia nigra of the brain, to thereby cause motor disability. As the rats, male SD (Sprague Dawley) rats (about 9 to 10 week old) were used. To these rats was administered desipramine (available from Sigma) (25 mg/kg, i.p.). Desipramine was used after being dissolved in distilled water to be 25 mg/ml. […]
One week after administration of 6-OHDA, apomorphine was administered, and rotational behaviors were confirmed to appear due to the lesion of substantia nigra by 6-OHDA in one hemisphere. […] Turnings were counted in every 5-minute interval, until rotational behaviors disappeared or until an event was repeated twice in which the number of turnings became 5 or less during the 5-minute interval. […]
To the model rat prepared in the above (1) (2 weeks after administration of apomorphine), L-dopa and benserazide (dopa decarboxylase inhibitor which inhibits degradation of L-dopa) were administered, and numbers of tunings were measured. […]
L-dopa was administered 30 minutes after benserazide administration, and turnings were counted after L-dopa administration. […]

pIC50 (PDE5): < 6.00
SMILES: COc1ccc(-c2cc(N3CCCC3)nc(/C=C/c3nc(-n4ccnc4)c4ccccc4n3)n2)cc1OC [Compound A, 2-{(E)-2-[4-(1-imidazolyl)-quinazolin-2-yl]}ethenyl-4-(3,4-dimethoxy)phenyl-6-(pyrrolidin-1-yl)pyrimidine]
L-dopa induced rotational behaviors, total number of turnings [1]: tended to increase
duration of L-dopa induced rotational behaviors [1]: significantly prolonged

From patent publication US8338420B1, “Treatment of Parkinson's disease and enhancement of dopamine signal using PDE 10 inhibitor” (Mitsubishi Tanabe Pharma Corporation, priority 2002, dated 2012)
